Measurements as given in US20110150980A1, “CGRP ANALOG” (VasoGenix Pharmaceuticals, Inc., priority 2009, published 2011).

Key:
[1] = tested on: non-sedated, non-naïve cynomolgus monkeys; experiment: Intravenous infusion in non-sedated, telemeterized non-human primates: blood pressure, heart rate, ECG (Example 2); format: in vivo
Procedure: Peptides were synthesized as in Example 1. […] Two non-naïve, telemeterized, male non-human primates (NHP “a” and “b”) were used for the test article(s) dosing regimen. […] Following a stabilized baseline period of approximately 30 minutes, one of the test article(s) was administered as an intravenous infusion via a femoral vein vascular access port (VAP) using a Pegasus PCA infusion pump for a period of 30 or 60 minutes. A minimum period of 30 minutes was allotted for the hemodynamic parameters to return to baseline prior to the next test article infusion dose. The process was repeated for each of the stated test articles. The same procedure was followed for the 1 hour infusion with 1 hour allotted for parameters to return to base line.
The non-human primates were previously surgically prepared with telemetry transducers, type TL11M2-D70-PCT (Data Sciences International). The acquisition and analysis was done using a Ponemah (Version 4.8 or higher) data acquisition and analysis system installed on the hard drive of a computer. The computer was equipped with disk drive for file back up on readable write-once only optical media (CD-R or DVD-R).
Prior to the first dose administration, baseline data was acquired. For each subsequent dose, data was collected for approximately 30 min postdose. Prior to the next dose, the hemodynamic parameters were allowed to return to a stable baseline±10%.
Systolic blood pressure (SYS or SBP), diastolic blood pressure (DBP), mean arterial pressure (MAP), heart rate (HR), and all lead II ECG variables were recorded. The telemetry data files were transferred to an Excel (MicroSoft® Version 2003) spreadsheet. The following variables from the lead II ECG were measured: PR interval, QRS duration, QT interval, RR interval, and QTcF interval (calculated as
A visual inspection of the entire collected ECG waveform for disturbances in rhythm and waveform morphology was performed. The data for selected time points were analyzed and assessed on completion of data acquisition and were the average of at least 30 beats (ABP and ECG) of data at the selected analysis time, when possible. The time points for both hemodynamic and ECG data analysis were an initial 30 min baseline prior to the first dose, at a 10 min during each infusion postdose interval relative to end of each infusion, and time points prior to the next test article infusion for each test compound.
Non-human primates were selected because they have the same RAMP 1-CGRP receptor complex as humans.

rats = settings: 19 ng/kg/min; cited from earlier work
[2] = NHP a, dose day 2, during 30 minute infusions of 0.024 ug/kg/min
[3] = NHP a, dose day 3, during 30 minute infusions of 0.024 ug/kg/min
[4] = NHP a, dose day 3, during 1 hour infusion of 0.024 ug/kg/min
[5] = NHP b, dose day 2, during 30 minute infusions of 0.024 ug/kg/min
[6] = NHP b, dose day 3, during 30 minute infusions of 0.024 ug/kg/min
[7] = NHP b, dose day 3, during 1 hour infusion of 0.024 ug/kg/min
[8] = average of a 2, b 2, a 3, b 3, during 30 minute infusions of 0.024 ug/kg/min
[9] = average of a3, b3, during 1 hour infusion of 0.024 ug/kg/min

ACNTATCVTHRLAGLLSRSGGMVKSNFVPTNVGSKAF-NH2 [βCGRP]
course of heart rate during 1 hour infusion ([1]; 1 hour infusion of 0.024 ug/kg/min, after 30 minutes): Heart rate continues to drop after 30 minutes
Percent change in HR, a 2 [1, 2]: 1.2%
Percent change in mean BP, a 2 [1, 2]: −8.8%
Percent change in systolic BP, a 2 [1, 2]: −7.4%
Percent change in HR, a 3 [1, 3]: −13.6%
Percent change in mean BP, a 3 [1, 3]: −16.8%
Percent change in systolic BP, a 3 [1, 3]: −12.2%
Percent change in HR at 30 minutes, a3 [1, 4]: −13.6%
Percent change in HR at 60 minutes, a3 1 hr [1, 4]: −10.7%
Percent change in mean systolic BP at 30 minutes, a3 [1, 4]: −16.8%
Percent change in mean systolic BP at 60 minutes, a3 1 hr [1, 4]: 0.0%
Percent change in systolic BP at 30 minutes, a3 [1, 4]: −12.2%
Percent change in systolic BP at 60 minutes, a3 1 hr [1, 4]: −0.8%
Percent change in HR, b 2 [1, 5]: −21.3%
Percent change in mean BP, b 2 [1, 5]: −6.7%
Percent change in systolic BP, b 2 [1, 5]: −8.1%
Percent change in HR, b 3 [1, 6]: −22.0%
Percent change in mean BP, b 3 [1, 6]: −23.4%
Percent change in systolic BP, b 3 [1, 6]: −23.2%
Percent change in HR at 30 minutes, b3 [1, 7]: −22.0%
Percent change in HR at 60 minutes, b3 1 hr [1, 7]: −18.1%
Percent change in mean systolic BP at 30 minutes, b3 [1, 7]: −23.4%
Percent change in mean systolic BP at 60 minutes, b3 1 hr [1, 7]: −10.7%
Percent change in systolic BP at 30 minutes, b3 [1, 7]: −23.2%
Percent change in systolic BP at 60 minutes, b3 1 hr [1, 7]: −10.1%
Percent change in mean HR, a 2 ([1]; Table 14, NHP a, dose day 2, during 30 minute infusions of 0.024 ug/kg/min): 1.2%
Percent change in mean HR, a 3 ([1]; Table 14, NHP a, dose day 3, during 30 minute infusions of 0.024 ug/kg/min): −13.6%
Percent change in mean HR, b 2 ([1]; Table 14, NHP b, dose day 2, during 30 minute infusions of 0.024 ug/kg/min): −21.3%
Percent change in mean HR, b 3 ([1]; Table 14, NHP b, dose day 3, during 30 minute infusions of 0.024 ug/kg/min): −22.0%
Percent change in mean HR, HR ([1]; Table 14, average of a 2, b 2, a 3, b 3, during 30 minute infusions of 0.024 ug/kg/min): −13.9%
Percent change in mean HR at 30 minutes, a3 ([1]; Table 24, NHP a, dose day 3, during 1 hour infusion of 0.024 ug/kg/min): −13.6%
Percent change in mean HR at 30 minutes, b3 ([1]; Table 24, NHP b, dose day 3, during 1 hour infusion of 0.024 ug/kg/min): −22.0%
Percent change in mean HR at 30 minutes, HR T30 ([1]; Table 24, average of a3, b3, during 1 hour infusion of 0.024 ug/kg/min): −17.8%
Percent change in mean HR at 60 minutes, a3 1 hr ([1]; Table 25, NHP a, dose day 3, during 1 hour infusion of 0.024 ug/kg/min): −10.7%
Percent change in mean HR at 60 minutes, b3 1 hr ([1]; Table 25, NHP b, dose day 3, during 1 hour infusion of 0.024 ug/kg/min): −18.1%
Percent change in mean HR at 60 minutes, HR T60 ([1]; Table 25, average of a3, b3, during 1 hour infusion of 0.024 ug/kg/min): −14.4%
Percent change in HR, HR [1, 8]: −13.9%
Percent change in mean BP, BP [1, 8]: −13.9%
Percent change in systolic BP, BP [1, 8]: −12.7%
Percent change in HR at 30 minutes, HR T30 [1, 9]: −17.8%
Percent change in HR at 60 minutes, HR T60 [1, 9]: −14.4%
Percent change in mean systolic BP at 30 minutes, BP T30 [1, 9]: −20.1%
Percent change in mean systolic BP at 60 minutes, BP T60 [1, 9]: −5.4%
Percent change in systolic BP at 30 minutes, T30 [1, 9]: −17.7%
Percent change in systolic BP at 60 minutes, T60 [1, 9]: −5.4%
effect on heart rate ([1]; non-sedated cynomolgus monkeys, IV infusion): maintenance of pre-administration heart rate, and in some cases, reduction in heart rate
heart rate and blood pressure effect (rats): tachycardia with no significant hypotension
